In general, IC50 refers to the point on the concentration scale where inhibition reaches its midpoint.

One test addresses T1, Peroxisome proliferator-activated receptor gamma (Homo sapiens, UniProt P37231).
T1 sequence (P37231 whole entry): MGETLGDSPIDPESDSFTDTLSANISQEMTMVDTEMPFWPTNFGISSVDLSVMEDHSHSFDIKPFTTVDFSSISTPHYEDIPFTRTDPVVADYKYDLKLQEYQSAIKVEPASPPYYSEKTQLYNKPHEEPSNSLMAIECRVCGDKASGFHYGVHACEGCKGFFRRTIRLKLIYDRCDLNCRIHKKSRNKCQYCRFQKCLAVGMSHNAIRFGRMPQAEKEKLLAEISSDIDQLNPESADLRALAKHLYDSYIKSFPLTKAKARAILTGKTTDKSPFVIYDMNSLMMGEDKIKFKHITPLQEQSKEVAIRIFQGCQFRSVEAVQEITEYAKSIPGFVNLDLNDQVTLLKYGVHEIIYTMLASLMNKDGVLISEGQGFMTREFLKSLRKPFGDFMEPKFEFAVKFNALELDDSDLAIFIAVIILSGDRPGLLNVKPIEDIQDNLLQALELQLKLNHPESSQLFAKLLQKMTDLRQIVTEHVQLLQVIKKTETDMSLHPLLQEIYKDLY
Put plainly: Inverse agonist activity at human his 6 tagged PPARgammaLBD incubated for 60 mins by TR-FRET assay.
Conditions: not given
(In general: TR-FRET usually uses a lanthanide donor and a delayed reading to cut background.)
In turn, `C[C@H](CCC(=O)NCCOCCOCCOCCOCCOCCOCCOCCOCCOCCOCCOCCOCCOCCOCCOCCNC(=O)c1ccc2c(-c3ccc(C(=O)O)cc3)nn(C(=O)c3c(Cl)cccc3C(F)(F)F)c2c1)[C@H]1CC[C@H]2[C@@H]3CC=C4C[C@@H](O)CC[C@]4(C)[C@H]3CC[C@]12C` returned an IC50 above 100000 nM.

The target of the next test is T2, Nuclear receptor ROR-gamma (Homo sapiens, UniProt P51449).
T2 sequence (P51449 whole entry): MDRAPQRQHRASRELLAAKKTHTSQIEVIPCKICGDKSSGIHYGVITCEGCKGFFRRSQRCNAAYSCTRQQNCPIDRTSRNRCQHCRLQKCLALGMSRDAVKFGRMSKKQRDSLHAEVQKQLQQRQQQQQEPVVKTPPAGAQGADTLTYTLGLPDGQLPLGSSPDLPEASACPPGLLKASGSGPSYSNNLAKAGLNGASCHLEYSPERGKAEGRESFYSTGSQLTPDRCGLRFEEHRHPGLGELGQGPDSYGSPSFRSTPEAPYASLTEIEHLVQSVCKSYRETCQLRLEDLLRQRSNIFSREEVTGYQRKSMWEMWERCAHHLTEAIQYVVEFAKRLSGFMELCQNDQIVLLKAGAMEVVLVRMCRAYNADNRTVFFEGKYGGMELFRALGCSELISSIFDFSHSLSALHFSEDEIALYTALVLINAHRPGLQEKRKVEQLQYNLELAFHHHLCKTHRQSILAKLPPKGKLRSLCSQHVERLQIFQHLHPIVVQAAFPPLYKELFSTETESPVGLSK
Put plainly: Inhibition of RORgamma (unknown origin) incubated for 1 hr by TR-FRET method.
Conditions: not given
Regarding `CN(C)C(=O)c1cc2c(s1)c(-c1ccc(C(=O)O)cc1F)nn2C(=O)c1c(F)cccc1C(F)(F)F`, the IC50 was below 50 nM.
With `Cc1cc2c(s1)c(-c1ccc(C(=O)O)cc1F)nn2C(=O)c1c(Cl)cccc1C(F)(F)F`, the concentration for half-maximal inhibition (IC50) is below 50 nM.
`Cc1cc2c(s1)c(-c1ccc(C(=O)O)cc1F)nn2C(=O)c1c(F)cccc1C(F)(F)F` returned an IC50 below 50 nM.
On to `Cc1cc2c(s1)c(-c1ccc(C(=O)O)cc1)nn2C(=O)c1c(C)cccc1Cl`, for which the IC50 is below 50 nM.
On to `Cc1cc2c(s1)c(-c1ccc(C(=O)O)cc1)nn2C(=O)c1c(Cl)cccc1Br`, for which the half-inhibitory concentration (IC50) is below 50 nM.
Take `Cc1cc2c(s1)c(-c1ccc(C(=O)O)cc1)nn2C(=O)c1c(Cl)cccc1C(F)(F)F`: the half-inhibitory concentration (IC50) was below 50 nM.
`Cc1cc2c(s1)c(-c1ccc(C(=O)O)c(F)c1)nn2C(=O)c1c(F)cccc1C(F)(F)F` gave an IC50 below 50 nM.
For `Cc1cc2c(s1)c(-c1ccc(C(=O)O)cc1F)nn2C(=O)c1c(Cl)cccc1Cl`, the IC50 was below 50 nM.

Tested on in another test: not listed separately
Put plainly: Inhibition of IL-17a mRNA level in […] at 10 uM incubated for 24 hrs by RT-PCR analysis. In kind it is functional, cell-based. The settings on record: el4.
On to `C[C@H](CCC(=O)NCCOCCOCCOCCOCCOCCOCCOCCOCCOCCOCCOCCOCCOCCOCCOCCNC(=O)c1ccc2c(-c3ccc(C(=O)O)cc3)nn(C(=O)c3c(Cl)cccc3C(F)(F)F)c2c1)[C@H]1CC[C@H]2[C@@H]3CC=C4C[C@@H](O)CC[C@]4(C)[C@H]3CC[C@]12C`, for which the IC50 turned out to be 110 nM.
